# From patent US12396968B2, “Mitofusin activators having an endocyclic-bonded carbonyl group and methods for use thereof” (priority 2022, dated 2025)
# How the values were obtained:
# mitofusin = experiment: Dose-response of mitofusin agonist fusogenicity (mitochondrial aspect ratio) in Mfn1- or Mfn2-deficient MEFs; type: cell-based, mouse; details: Mfn1-KO or Mfn2-KO MEFs, compounds overnight, mitochondrial aspect ratio indexed to maximal response of Compound 35
# Protocol: Dose-response of mitofusin agonist fusogenicity was performed in Mfn1- or Mfn2-deficient MEFs (Mfn1-KO or Mfn2-KO MEFs) cultured at 37° C. and 5% CO2-95% air. Cells were seeded on day 1 in 6 well plates at a density of 2×10^4 cells per well and compounds added at 9 concentrations (0.5 nM-10 μM dissolved in DMSO) overnight. Mitochondria were then stained with MitoTracker Orange (200 nM; M7510; Invitrogen, Carlsbad, CA, USA). Nuclei were stained with Hoescht (10 μg/ml; Invitrogen, Thermo Fisher Scientific Cat: #H3570). Images were acquired at room temperature on a Nikon Ti Confocal microscope using a 60×1.3 NA oil-immersion objective in Krebs-Henseleit buffer (138 NaCl, […] pH: 7.2-7.5, and 1 mM CaCl2). Laser excitation was 549 nm with emission at 590 nm for MitoTracker Orange and excitation at 306 nm with emission at 405 nm for Hoescht. Images were analyzed using ImageJ and fusogenicity quantified as mitochondrial aspect ratio (length/width), and were indexed to the maximal response elicited by Compound 35, a known mitofusin activator. Response curves were interpolated using the sigmoidal model using Prism 8 software. EC50 values are reported as mean with 95% confidence limits for at least 3 independent experiments.
# (§1) Further testing details for the MFN activity and PAMPA are provided in U.S. Patent Applications 2020/0345668 and 2020/0345669, incorporated herein by reference above.
# [1] = Passive artificial blood brain barrier membrane permeability assay (PAMPA-BBB); type: in vitro ADME; details: 10 μM compound, 1% porcine brain polar lipid extract/dodecane, room temperature
# Protocol: Passive artificial blood brain barrier membrane permeability assay (PAMPA-BBB) were performed using 150 μL of 10 μM compounds (5% DMSO) added to PVDF membranes pre-coated with 5 μL of 1% brain polar lipid extract (Porcine)/dodecane mixture and incubated for 4 h at room temperature with shaking at 300 rpm. Donor and acceptor samples were analyzed by LC-MS/MS.
# as §1
# [2] = Plasma protein binding by equilibrium dialysis, human; type: in vitro ADME; details: read-out: Plasma Protein Binding (Bound %) Human (converted)
# Protocol: (§2) In vitro pharmacokinetic analyses were performed in duplicate using standard methods by WuXi AppTec Co. Ltd. (Shanghai, China). Plasma protein binding was measured by equilibrium dialysis; % bound=(1−[free compound in dialysate]/[total compound in retentate])×100. Plasma stability of 2 uM compounds in clarified freeze-thawed plasma was assessed by LC-MS/MS of supernatants after protein precipitation; 120 min data are reported for studies including 0, 10, 30, 60, and 120 min. Liver microsome stability of 1 uM compounds in liver microsomes (0.5 mg/ml) after 0, 5, 10, 20, 30, 60 min. incubation was assessed by LC/MS/MS of reaction extracts.
# [3] = Plasma protein binding by equilibrium dialysis, mouse; type: in vitro ADME; details: read-out: Plasma Protein Binding (Bound %) Mouse (converted)
# Protocol: as §2
# [4] = Liver microsome stability, human; type: in vitro ADME; details: human liver microsomes 0.5 mg/ml, 1 uM compound; read-out: Liver Microsomes (t1/2, minutes) Human
# Protocol: as §2
# [5] = Liver microsome stability, mouse; type: in vitro ADME; details: mouse liver microsomes 0.5 mg/ml, 1 uM compound; read-out: Liver Microsomes (t1/2, minutes) Mouse
# Protocol: as §2
EC50 (mitofusin),"Papp at 4 h, 10 μM [1]",fraction unbound [2],fraction unbound [3],half-life at 1 uM [4],half-life at 1 uM [5],Compound
5.3 nM,86.8 ×10⁻⁶ cm/s,,,,,O=C(NC1CC1CCCCc1ccccc1)C1CCC(O)CC1 (centres unmarked) [Formula 30A]
26.7 nM,10.5 ×10⁻⁶ cm/s,0.37,0.221,> 145 min,> 145 min,O=C(NC1CC1OCCCc1ccccc1)C1CCC(O)CC1 (centres unmarked) [Formula 34A]
10.8 nM,2.28 ×10⁻⁶ cm/s,0.626,0.361,> 145 min,> 145 min,O=C(NC1CC1OCc1ccccc1)C1CCC(O)CC1 (centres unmarked) [Formula 33A]
30.5 nM,145 ×10⁻⁶ cm/s,0.049,0.043,103 min,52.5 min,O=C(CCCCCCc1ccccc1)N1CCC(O)CC1 [Formula 7]
12.2 nM,143 ×10⁻⁶ cm/s,0.014,0.011,64.5 min,28 min,O=C(CCCCCCCc1ccccc1)N1CCC(O)CC1 [Formula 10]
9 nM,95.1 ×10⁻⁶ cm/s,0.042,0.029,110 min,224 min,O=C(NC1CC(CCCc2ccccc2)C1)C1CCC(O)CC1 (centres unmarked) [Formula 31A]
9.68 nM,30.2 ×10⁻⁶ cm/s,0.107,0.071,> 145 min,102 min,O=C(NCCCCCc1ccccc1)C1CCC(O)CC1 (centres unmarked) [Formula 26]
10.5 nM,5.43 ×10⁻⁶ cm/s,0.535,0.279,> 145 min,> 145 min,O=C(N[C@H]1C[C@@H]1OCCc1ccccc1)[C@H]1CC[C@H](O)CC1 [Formula 32A]
> 10000 nM,96.1 ×10⁻⁶ cm/s,0.163,0.088,> 145 min,82.4 min,O=C(CCCCCc1ccccc1)N1CCC(O)CC1 [Formula 9]
> 10000 nM,180 ×10⁻⁶ cm/s,0.034,0.041,60.6 min,22.5 min,O=C(CCCCCCc1ccccc1)N1CCCC(O)C1 (centres unmarked) [Formula 8]
